Assay type in all cases: physicochemical
The nature of series [1]: Hydrolysis of acylacronycinium salts in presence of complexing agents. As to conditions: for k (hydrolysis): gentisic acid (0.05 M); for half-life at 100 µM: 10^-4 M drug, 25° C., pH 6.0, read-out: Apparent half-life, t1/2. As for the experimental part:
In studying the kinetics of hydrolysis of the aforesaid quaternary acyl acronycinium salts to yield acronycine, it was determined that the increased solubility and the rapid rate of hydrolysis were such that said quaternary derivatives were eminently well suited for use as pro-drugs. Nevertheless, the facility with which hydrolysis occurred in water presented one problem of too rapid precipitation from solution as a consequence of the formation of the slightly soluble acronycine free base. In order to prevent any objectionable hydrolysis of the pro-drug in aqueous solution prior to administration, it was discovered that the hydrolytic rate thereof could be retarded by the formation of intermolecular complexes therewith. […] Moreover, since complexation is an equilibrium phenomenon, extensive complexation occurs in the relatively concentrated drug solution. However, upon dilution with aqueous media such as body fluids, the complex species dissociates, and the pro-drug is then rapidly hydrolyzed to the desired drug species, namely, the acronycine free base. Exemplary of the complexing agents which can be used in aqueous solutions of the acylacronycinium salts to retard the hydrolysis thereof are a wide variety of the organic acids and alkali metal salts thereof, preferably the cyclic and aromatic organic acids, and most preferably the hydroxy aromatic acids. Representative of same are gentisic acid, gamma-resorcylic acid, p-hydroxycinnamic acid, 2-furoic acid, m-hydroxycinnamic acid, 3,4-dimethylcinnamic acid and 3-methylgentisic acid, and the sodium and other salts thereof. A suitably stable and useful formulation of an acylacronycinium salt for use in the preparation of pharmaceutical solutions can be simply made by preparing a powder mixture of the desired acylacronycinium salt and a suitable complexing agent in such proportions and amounts that upon addition of an aqueous solvent, the resulting solution would be of a composition such that the hydrolysis of the acylacronycinium salt would be greatly retarded.
Among the number of the hydroxy aromatic acids, particularly the hydroxy benzoic acids that have been utilized according to the invention, excellent results have been attained with the preferred 2,5-dihydroxy-benzoic acid (gentisic acid). […] Mathematical analysis of the results dictates describing this system by two equilibria; one to one complex and one to two complex formation (one drug and two ligand), with the 1:1 complex and the free drug hydrolyzing with half-lives of 120 and 23 minutes, respectively. The solid curve of the FIGURE of drawing illustrates the result of such model. Constants required for the t1/2 calculations were as follows:
and the experimental conditions were:
Use of suitable complexing agents in aqueous solutions of the acylacronycinium salts retarded the hydrolysis of such compounds. Some of the complexing agents used were the following: sodium gentisate, sodium gamma-resorcylate and sodium cinnamate. Table I reflects the effects of sodium gentisate concentration on the apparent rate of hydrolysis of acetylacronycinium perchlorate.
Apparent half-line of acetylacronycinium perchlorate
(10^-^4 M) as a function of sodium gentisate concentration
in water at 25° C. pH = 6.0.
Experimental: Twenty-five mg of acetylacronycinium perchlorate and 4.6 g of sodium gentisate were powdered, mixed and placed in a suitable vial and sealed. Just prior to use, 100 ml of water was added to the vial, and the solid material dissolved rapidly, yielding a solution which was about 10^^-3 M with respect to acetylacronycinium perchlorate and about 0.2 Molar with respect to sodium gentisate.

The nature of series [2]: Hydrolysis of acylacronycinium salts in aqueous solution (no complexing agent). As to conditions: for half-life: read-out: t1/2 (hydrolysis).
The next series is described as follows: Solubility. The settings on record: water; for solubility (qualitative): acetone, benzene.
Setting [3] is: phosphate buffer, pH 7.60, 25°C.
The mark [4] stands for this setting: phosphate buffer, 25° C., pH not given, three runs.
[5] abbreviates: acetate buffer (25° C.), replicate runs.
[6] abbreviates: phosphate buffer (25° C.), replicate runs.

A word on the solubility: it is how much of the substance goes into solution per volume.

Several values for one entry are separate records, joined by “and”; a condition that tells them apart may be missing. Identical values can stand only once. Counter-ions that a name gives are not always drawn. Like-named read-outs stand apart in the source and are kept apart here.

On to `CCC(=O)Oc1c2ccccc2[n+](C)c2c3c(cc(OC)c12)OC(C)(C)C=C3` [propionylacronycinium perchlorate, Propionylacronycinium Perchlorate], for which the half-life in series [1] (0.05 m gentisic acid, pH 2.7, gentisic acid (0.05 M), pH 2.70, 25°C, read-out: t1/2 (hydrolysis)) amounted to 103 min; in series [1] (0.05 m gentisic acid, pH 2.78, gentisic acid (0.05 M), pH 2.78, 25°C, read-out: t1/2 (hydrolysis)) it was 86.4 min; in series [2] (phosphate buffer, pH 7.5, phosphate buffer, pH 7.50, 25°C), 24.4 min; in series [2] (phosphate buffer, pH 7.6, phosphate buffer, pH 7.60, 25°C), 14.9 min. Further, the “k (hydrolysis)” value was 0.0067 min⁻¹ in series [1] (pH 2.70, 25°C); 0.008 min⁻¹ in series [1] (pH 2.78, 25°C); 0.028 min⁻¹ in series [2] (phosphate buffer, pH 7.50, 25°C); 0.046 min⁻¹ and 0.047 min⁻¹ in series [2] (setting [3]). Besides, in series [2] (setting [3]), the “t1/2 (hydrolysis)” value is listed as 14.6 min.
Consider `COc1cc2c(c3c1c(OC(=O)C(C)(C)C)c1ccccc1[n+]3C)C=CC(C)(C)O2` [pivalylacronycinium perchlorate, Pivalylacronycinium Perchlorate], for which, in series [2] (setting [4]), the “k (hydrolysis)” value was 0.043 min⁻¹ and 0.0387 min⁻¹ and 0.0289 min⁻¹; the “t1/2 (hydrolysis)” value was 17.91 min and 23.98 min; the half-life stood at 16.1 min.
In the case of `COc1cc2c(c3c1c(OC(=O)C(F)(F)F)c1ccccc1[n+]3C)C=CC(C)(C)O2` [Trifluoroacetylacronycinium Perchlorate], the reactivity with chloroform entry in series [2] (chloroform) is reported as “little reaction with chloroform (until water was added)”. Besides, in series [2] (overnight in desiccator while still moist), the hydrolysis on storage entry is on record as “Some hydrolysis occurred overnight”. The “reactivity with water and methanol” value in series [2] (water and methanol) was “reacted very quickly with water and methanol”.
For `COc1cc2c(c3c1c(OC(=O)C(C)C)c1ccccc1[n+]3C)C=CC(C)(C)O2` [Isobutyrylacronycinium Perchlorate], the “k (hydrolysis)” value in series [2] (phosphate buffer, pH 6.33, 24° C.) stood at 0.02057 min⁻¹. Moreover, the half-life in series [2] (phosphate buffer, pH 6.33, phosphate buffer, pH 6.33, 24° C.) was found to be 33.7 min.
Regarding `COc1cc2c(c3c1c(=O)c1ccccc1n3C)C=CC(C)(C)O2` [perchlorate salt, acronycinium perchlorate], in the series “Solubility”, the “solubility (qualitative)” value is “soluble in water and insoluble in acetone and benzene”.
Take `COc1cc2c(c3c1c(OC(C)=O)c1ccccc1[n+]3C)C=CC(C)(C)O2` [Acetylacronycinium Sulfate]: the “k (hydrolysis)” value in series [2] (setting [5]) was 0.0262 min⁻¹ and 0.0254 min⁻¹; in series [2] (setting [6]) it was 0.036 min⁻¹ and 0.0352 min⁻¹ and 0.0323 min⁻¹. Moreover, the “t1/2 (hydrolysis)” value in series [2] (setting [5]) was 27.3 min; in series [2] (setting [6]), 19.7 min and 21.5 min. For the same compound, the half-life amounted to 26.5 min in series [2] (acetate buffer, acetate buffer (25° C.), replicate runs) and 19.3 min in series [2] (phosphate buffer, phosphate buffer (25° C.), replicate runs).
`COc1cc2c(c3c1c(OC(C)=O)c1ccccc1[n+]3C)C=CC(C)(C)O2` [acetylacronycinium perchlorate, Acetylacronycinium Perchlorate]: the “t1/2 and k of hydrolysis, 3,4-dihydroxycinnamic acid complex” value in series [1] (3,4-dihydroxycinnamic acid, pH 6.5, 25° C., 0.05 M phosphate buffer) is listed as “roughly comparable to those generated with the sodium gentisate complex”. Further, the “t1/2 and k of hydrolysis, cinnamic acid complex” value in series [1] (cinnamic acid, pH 6.5, 25° C., 0.05 M phosphate buffer) was “roughly comparable to those generated with the sodium gentisate complex”. In addition, the “t1/2 and k of hydrolysis, gamma-resorcylic acid complex” value in series [1] (gamma-resorcylic acid, pH 6.5, 25° C., 0.05 M phosphate buffer) is “roughly comparable to those generated with the sodium gentisate complex”. Further, the “t1/2 1:2 Complex” value in series [1] (model constant, sodium gentisate, μ = 1.0 M, 25.0°C, pH 6.5, 520 nm) is listed as “.infin”. Further, in series [1] (p-hydroxycinnamic acid, pH 6.5, 25° C., 0.05 M phosphate buffer), the “t1/2 and k of hydrolysis, p-hydroxycinnamic acid complex” value is reported as “roughly comparable to those generated with the sodium gentisate complex”. In series [1] (sodium gentisate, FIGURE), the “rate of hydrolysis with sodium gentisate” value is given as “greatly reduced”. The “K1:1 (complexation constant)” value in series [1] (sodium gentisate, one drug, one ligand, μ = 1.0 M, 25.0°C, pH 6.5, 520 nm, in M^-1 (unit assumed)) is 4,081. Further, the “k1:2 (complexation constant)” value in series [1] (sodium gentisate, one drug, two ligand, μ = 1.0 M, 25.0°C, pH 6.5, 520 nm) was 80,000. The half-life at 1000 µM in series [1] (water, about 10^-3 M drug, about 0.2 Molar sodium gentisate, water, reconstituted powder mixture, read-out: apparent hydrolytic half-life (converted)) is approximately 570 min. Further, the half-life at 100 µM in series [1] (water, pH 6, sodium gentisate 0 M/l, water) amounted to 23 min; in series [1] (water, pH 6, sodium gentisate 0.1 M/l, water) it was 350 min; in series [1] (water, pH 6, sodium gentisate 0.2 M/l, water), 578 min; in series [1] (water, pH 6, sodium gentisate 1 × 10^-2 M/l, water) it was 125 min; in series [1] (water, pH 6, sodium gentisate 2 × 10^-2 M/l, water), 156 min; in series [1] (water, pH 6, sodium gentisate 2.5 × 10^-3 M/l, water) it was 93 min. The half-life at 100 µM in series [1] (water, pH 6, sodium gentisate 4 × 10^-2 M/l, water) was 207 min; in series [1] (water, pH 6, sodium gentisate 5 × 10^-3 M/l, water) it was 108 min; in series [1] (water, pH 6, sodium gentisate 6 × 10^-2 M/l, water), 260 min; in series [1] (water, pH 6, sodium gentisate 8 × 10^-2 M/l, water), 295 min. Moreover, the half-life in series [1] (water, pH 6.5, 1:1 complex with sodium gentisate, two-equilibria model, μ = 1.0 M, 25.0°C, pH 6.5, 520 nm, read-out: half-life of hydrolysis, 1:1 complex) was found to be 120 min; in series [1] (water, pH 6.5, model constant, sodium gentisate, μ = 1.0 M, 25.0°C, pH 6.5, 520 nm, read-out: t1/2 1:1 Complex) it was 119 min. For the same compound, in the series “Solubility”, the “solubility (qualitative)” value is “insoluble in benzene, but soluble in water and acetone”. Further, in “Solubility”, the “increase in solubility over the free base” value is recorded as “hundredfold increase in solubility”. The values for the solubility in “Solubility” (read-out: Solubility) and in “Solubility” (read-out: solubility in water) were approximately 250 µg/mL and 250 µg/mL, respectively. For the same compound, the “enthalpy of activation of hydrolysis” value in series [2] is “about 20 kcal/mole”. Further, the “effect of dielectric constant on hydrolysis rate” value in series [2] (increasing dielectric constant) is on record as “greatly increased”. The “effect of ionic strength, pH, anion, ester group size on hydrolysis rate” value in series [2] (ionic strength, pH (below 8-9), anion, ester group size) is recorded as “remarkably insensitive”.
For `COc1cc2c(c3c1c(OC(C)=O)c1ccccc1[n+]3C)C=CC(C)(C)O2` [Acetylacronycinium Chloride], the “k (hydrolysis)” value worked out at 0.0248 min⁻¹ in series [2] (methanol/water (90/10), pH 0.28) and 0.025 min⁻¹ in series [2] (methanol/water (90/10), pH 1.28). The half-life in series [2] (methanol/water (90/10), pH 0.28, methanol/water (90/10), pH 0.28) came out at 28 min; in series [2] (methanol/water (90/10), pH 1.28, methanol/water (90/10), pH 1.28), 27.7 min.

These data come from patent US3943137A, “Acronycine derivatives” (University of Kansas Endowment Association, priority 1973, dated 1976).
